These results are taken from patent publication US6043283A, “Tyramine compounds and their neuronal effects” (priority 1997, dated 2000).

Entries after “also recorded” stand apart in the source; their conditions may differ. Where two headings read alike, the source gives them in different places.

One data set has as its system hippocampal neurons. Format: cell-based, rat. Conditions: absence of microglia.
Data set [1] has as its system Aβ1-42-stimulated microglia. The format is cell-based, rat. Conditions: for blocking of Aβ1-42 induced microglial neurotoxicity by peptides: 10 μmoles/liter peptide, 1 μmole/liter Aβ1-42. The method, boiled down:
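E18 rat hippocampal cultures, microglia depleted with saporin–ac-LDL (10 μg/ml, 12 h) on day 14, then given test substances at 10μM with or without exogenous microglia (100,000 cells) for 72 h. Neurons immunostained (NF plus MAP-2) and nuclei counted by fluorescence microscopy; survival expressed as % of parallel untreated controls.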

The format of data set [2] is physicochemical. The note with it: chemically defined culture media, 37° C.; Table 2. The text has this: Solubility of peptides is described for chemicallydefined culture media a […]
Data set [3] relates to rat microglia. Format: binding. The note with it: 6 hours, 37° C. As for the experimental part:
Synthetic Aβ peptides were linked to Sepharose beads (Pharmacia) in coupling buffer (0.1 M NaHCO3, 0.5 M NaCl, pH 8.3) containing 20% DMSO. This solution was combined with an appropriate volume of CNBr-activated Sepharose 4B (10 mg protein per ml of bead; Pharmacia protocol) and mixed overnight on a platform mixer at room temperature. Remaining active groups on the beads were blocked by 1.0 M glycine and excess uncoupled peptides removed from this bead-peptide complex by washing with three cycles of alternating pH (0.1 M acetate buffer, pH 4.0, followed by 0.1 M Tris-HCL buffer, pH 8.0, each buffer containing 0.5 M NaCl). Coupled beads (10^4 per ml) were placed in 35 mm culture dishes covered with 250,000 adhering microglia at 37° C. in 1.5 ml N2 medium in accordance with the procedure of Giulian et al., 1995a. The numbers of microglia which detached from the plate and bound to coupled beads were determined at the end of a 6 hour incubation period by inverted phase microscopy with 100 beads scored from each of three sister cultures. Glycine and bovine serum albumin (BSA) coupled beads were used as controls.

Data set [4] relates to human microglia. Kind of data set: induction of neuron-killing human microglia. The format is cell-based. The note with it: 1 μmole/liter synthetic peptides.
For another data set, the system named is microglia. The data set is described as follows: inhibition of SpheresAβ1-42 binding to microglia. Details: species or system rat. The note with it: 10 μmoles/l, 4 hours, 37° C.
Data set [5] has as its system rat microglia / hippocampal neurons. Conditions: for induction of neurotoxic microglia / neuron killing: rat microglia, mostly 1 μmole/l; for neuron loss with conditioned media from microglia: 10% vol/vol conditioned media, microglia with 1 μmole/l peptide; for killing of neurons: rat, hippocampal neurons, 72 h, 1 µM.
Data set [6] concerns rat microglia. Kind of data set: binding of Aβ-coupled microspheres to microglia. The note with it: 4 hours at 37° C. (72 h in FIG. 23).
Data set [7] has as its system human microglia. Kind of data set: nitrite/nitrate production, human microglia. Format: cell-based. How it is done:
Nitrites and nitrates, stable byproducts of nitric oxide synthetase (NOS) served as markers for nitric oxide (NO) synthesis (Ignarro, 1990). […]; for 24 to 72 hours incubated in the presence of neuritic/core plaques or Aβ peptides) were measured by the Griess method set forth by Beckman et al., 1990 against a standard curve ranging from 0.1 to 50.0 μM nitrate.

The subject of data set [8] is NTox released by Aβ1-42-stimulated microglia (neuron killing). Kind of data set: cells. Format: cell-based, rat. Conditions: 72 hours; FIG. 30 experiment.
Data set [9] relates to reactive microglia in rat neocortex. The data set is described as follows: brain inflammatory response after infusion into neocortex of adult rat. The note with it: 0.5 nmoles Aβ1-42, co-infusion of 1.0 nmole peptide; 5 days. Format: in vivo.
In data set [10] the test system is rat microglia. The data set is described as follows: microglial morphology / reactivity. The format is cell-based. As for the experimental part:
Equal amounts of plaque protein (normalized to total amine content at 400 μmoles/l) were added to neuronal cultures in the presence (100,000 cells per culture) or absence of rat microglia. […] The chromatogram was developed with 80% glass distilled formic acid at a flow rate of 0.3 ml per minute and monitored at 280 nm.
Bright field photomicrographs of rat microglia cultures exposed to peak S1 (FIG. 20A) or peak S5 (FIG. 20B) and immuno-stained for the presence of Aβ.
FIGS. 22A-F depict cellular responses upon exposure to synthetic Aβ peptides. […] Bar=25 microns.

Data set [11] has as its system scavenger receptor II mRNA / microglia. The data set is described as follows: microsphere implants in brain neocortex: reactive microglia and scavenger receptor mRNA. Format: in vivo. From the text:
FIGS. 7A, B, and C show SpheresAβ1-42 in vivo. […]. […] Microglia were visualized by uptake of fluorescent labeled acetylated LDL, DiI-ac-LDL Bar=40 μm, FIG. 7A; 25 μm FIG. 7B and C.

Regarding Aβ1-28: Aβ peptide residues 1-28, in the data set on hippocampal neurons, the “direct neurotoxicity without microglia” value is “did not produce neurotoxicity”. Also, the “blocking of Aβ1-42 induced microglial neurotoxicity by peptides” value in data set [1] was “blocked neurotoxin production”. Besides, the IC50 in [1] (read-out: ED50 (blocking of Aβ1-42 induced neurotoxicity), FIG. 16B) came to 0.25 µM. Moreover, the Solubility result in [2] is “soluble”. Moreover, the “microglial adherence to coupled Sepharose beads” value in the data set with rat microglia [3] was “promoted cell binding; also recorded: promoted bead binding”. The “induction of neurotoxic human microglia” value in the data set with human microglia [4] was “inactive”. Moreover, in the data set with microglia, the “inhibition of SpheresAβ1-42 binding by peptides” value was “effectively prevented”. Besides, the “induction of neurotoxic microglia / neuron killing” value in data set [5] (listed as 1-28) is “inactive”.
As to “Aβ1-42: synthetic human β-amyloid peptide 1-42”, the Solubility result in data set [2] is “very insoluble”. The “binding of peptide-coupled microspheres to microglia” value in the data set on rat microglia [6] is “marked glial binding; also recorded: readily bind; also recorded: readily engulfed by microglia”. Also, in the data set on rat microglia [3], the “microglial adherence to coupled Sepharose beads” value is “anchored to beads; also recorded: provided an anchoring site for microglia”. Also, the “release of nitrate or nitrite, human microglia” value in the data set with human microglia [7] was “did not bring about release of nitrate or nitrites”. In addition, the “induction of neurotoxic human microglia” value with human microglia [4] is reported as “very potent inducers of neurotoxic human microglia; also recorded: stimulated release of neurotoxin from human microglia”. For the same substance, the “neurons destroyed by Aβ-stimulated microglia” value in data set [8] is listed as “about 65%”. In data set [9], the “local brain inflammatory response” value was “produces an inflammatory response”. The “microglial morphology / reactivity” value with rat microglia [10] is “morphological changes with retraction of processes”. Further, in [5], the “neuron killing, microglia separated from neurons (no contact)” value is “stimulated microglia to destroy neurons”; the “neuron loss with conditioned media from microglia” value is given as “Significant neuron loss occurred”; the killing of neurons is recorded as 70-80%. The neuron killing entry in data set [5] (100 nmoles/liter, rat microglia 500 cells per mm^2) is reported as “destroyed nearly all neurons”. In addition, the neuron kill in data set [5] ("aged" Aβ1-42) was 77.5%±2.6%. For the same substance, the neuron kill in data set [5] (fresh Aβ1-42) is 75.1%±5.8%. For the same substance, in data set [5] (listed as 1-42), the “induction of neurotoxic microglia / neuron killing” value is recorded as “induced toxic effects”.
“Aβ17-43: Aβ peptide residues 17-43 (LVFFAEDVGSNKGAIIGLMVGGVVIAT; Amyloid-beta protein 42; UniProt P05067 688-714, looked up, fragment)”: in [1], the “blocking of Aβ1-42 induced microglial neurotoxicity by peptides” value is “did not”. In addition, the “induction of neurotoxic human microglia” value in the data set on human microglia [4] was “inactive”. In addition, in the data set with microglia, the “inhibition of SpheresAβ1-42 binding by peptides” value is given as “did not”. The “microglial morphology / reactivity” value in the data set with rat microglia [10] was “does not alter microglial morphology”. The “neuron loss with conditioned media from microglia” value in [5] was “undamaged”.
Consider “SpheresAβ1-42: Aβ1-42 coupled to (fluorescent) microspheres”, for which the “increase in scavenger receptor mRNA vs undamaged tissue or SphereBSA” value in data set [11] (two weeks after implantation) is given as 5 fold. In data set [11] (weeks after implantation), the “reactive microglia around implanted spheres” value was “chronically stimulate the presence of reactive cells”. Besides, the entries for the “binding of peptide-coupled microspheres to microglia” value in the data set on rat microglia [6], in the data set on rat microglia [6] (listed as Aβ1-42-spheres) and in the data set on rat microglia [6] (listed as Aβ1-42 coupled-microspheres) were “rapidly engulfed by cultured microglia”, “localized specifically within DiI-ac-LDL(+) microglia” and “readily taken up by microglia”, respectively. Further, the “induction of neurotoxic microglia / neuron killing” value in data set [5] is recorded as “induced neuron killing”. For the same substance, the killing of neurons in data set [5] was 70-80%.
